Key:
KARPAS-299 = experiment: Antiproliferative activity against human KARPAS299 cells assessed as reduction in cell viability incubated for 72 hrs by MTT assay; assay type: functional, cell-based; settings: KARPAS-299, 72 h
NCI-H2228 = experiment: Antiproliferative activity against human NCI-H2228 cells assessed as reduction in cell viability incubated for 72 hrs by MTT assay; assay type: functional, cell-based; settings: NCI-H2228, 72 h
A549 [1] = experiment: cells; settings: Homo sapiens, A549, 72 h
HT-29 = experiment: cells; settings: Homo sapiens, HT-29, 72 h
Description: Antiproliferative activity against human HT-29 cells assessed as reduction in cell viability incubated for 72 hrs by MTT assay

HCC78 = experiment: Antiproliferative activity against human HCC78 cells assessed as reduction in cell viability incubated for 72 hrs by MTT assay; assay type: functional, cell-based; settings: HCC78, 72 h
A549 [2] = experiment: Antiproliferative activity against human A549 cells harbouring […] mutant assessed as reduction in cell viability incubated for 72 hrs by MTT assay; assay type: functional, cell-based; settings: A549, 72 h
[3] = target: Epidermal growth factor receptor (Homo sapiens, UniProt P00533)
Epidermal growth factor receptor, sequence (P00533 whole entry, the tested form may be a part): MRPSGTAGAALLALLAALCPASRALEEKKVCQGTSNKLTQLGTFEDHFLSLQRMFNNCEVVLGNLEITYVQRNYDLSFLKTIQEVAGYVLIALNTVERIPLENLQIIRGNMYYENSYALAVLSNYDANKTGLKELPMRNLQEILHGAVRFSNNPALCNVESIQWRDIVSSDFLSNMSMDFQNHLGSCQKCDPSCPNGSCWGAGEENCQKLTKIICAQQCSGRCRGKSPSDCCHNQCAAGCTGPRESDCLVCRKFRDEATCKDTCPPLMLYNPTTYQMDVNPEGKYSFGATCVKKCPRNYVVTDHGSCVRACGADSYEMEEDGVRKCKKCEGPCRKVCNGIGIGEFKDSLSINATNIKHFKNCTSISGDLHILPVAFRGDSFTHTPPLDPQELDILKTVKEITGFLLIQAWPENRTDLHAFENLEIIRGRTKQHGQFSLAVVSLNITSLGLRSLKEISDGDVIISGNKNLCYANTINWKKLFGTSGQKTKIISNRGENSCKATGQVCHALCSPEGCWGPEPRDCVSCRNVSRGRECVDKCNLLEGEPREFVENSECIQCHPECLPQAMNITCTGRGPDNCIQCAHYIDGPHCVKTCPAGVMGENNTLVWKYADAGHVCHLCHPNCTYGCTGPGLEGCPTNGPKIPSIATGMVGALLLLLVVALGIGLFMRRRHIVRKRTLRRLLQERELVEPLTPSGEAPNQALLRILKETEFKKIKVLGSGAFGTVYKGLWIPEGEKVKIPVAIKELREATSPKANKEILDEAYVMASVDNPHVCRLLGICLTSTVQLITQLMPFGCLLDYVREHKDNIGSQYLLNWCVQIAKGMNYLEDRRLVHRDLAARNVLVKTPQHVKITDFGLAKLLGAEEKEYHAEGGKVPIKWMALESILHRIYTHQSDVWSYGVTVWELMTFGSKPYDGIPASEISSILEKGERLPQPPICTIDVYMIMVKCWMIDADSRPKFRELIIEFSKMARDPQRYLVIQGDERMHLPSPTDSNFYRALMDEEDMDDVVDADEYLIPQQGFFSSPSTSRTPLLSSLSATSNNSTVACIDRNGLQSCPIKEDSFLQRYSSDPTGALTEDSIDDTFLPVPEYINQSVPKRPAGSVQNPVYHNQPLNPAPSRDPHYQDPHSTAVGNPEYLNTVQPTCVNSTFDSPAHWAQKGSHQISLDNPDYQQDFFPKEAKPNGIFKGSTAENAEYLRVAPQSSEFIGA
Description: Inhibition of recombinant human N-terminal GST-tagged EGFR (669 to 1210 residues) cytoplasmic domain expressed in baculovirus expression system using Srctide as substrate incubated for 1 hr by mobility shift assay

[4] = target: Hepatocyte growth factor receptor (Homo sapiens, UniProt P08581); experiment: Inhibition of recombinant human N-terminal GST-tagged MET (956 to 1390 residues) cytoplasmic domain expressed in baculovirus expression system using Srctide as substrate incubated for 1 hr by mobility shift assay
Hepatocyte growth factor receptor, sequence (P08581 whole entry, the tested form may be a part): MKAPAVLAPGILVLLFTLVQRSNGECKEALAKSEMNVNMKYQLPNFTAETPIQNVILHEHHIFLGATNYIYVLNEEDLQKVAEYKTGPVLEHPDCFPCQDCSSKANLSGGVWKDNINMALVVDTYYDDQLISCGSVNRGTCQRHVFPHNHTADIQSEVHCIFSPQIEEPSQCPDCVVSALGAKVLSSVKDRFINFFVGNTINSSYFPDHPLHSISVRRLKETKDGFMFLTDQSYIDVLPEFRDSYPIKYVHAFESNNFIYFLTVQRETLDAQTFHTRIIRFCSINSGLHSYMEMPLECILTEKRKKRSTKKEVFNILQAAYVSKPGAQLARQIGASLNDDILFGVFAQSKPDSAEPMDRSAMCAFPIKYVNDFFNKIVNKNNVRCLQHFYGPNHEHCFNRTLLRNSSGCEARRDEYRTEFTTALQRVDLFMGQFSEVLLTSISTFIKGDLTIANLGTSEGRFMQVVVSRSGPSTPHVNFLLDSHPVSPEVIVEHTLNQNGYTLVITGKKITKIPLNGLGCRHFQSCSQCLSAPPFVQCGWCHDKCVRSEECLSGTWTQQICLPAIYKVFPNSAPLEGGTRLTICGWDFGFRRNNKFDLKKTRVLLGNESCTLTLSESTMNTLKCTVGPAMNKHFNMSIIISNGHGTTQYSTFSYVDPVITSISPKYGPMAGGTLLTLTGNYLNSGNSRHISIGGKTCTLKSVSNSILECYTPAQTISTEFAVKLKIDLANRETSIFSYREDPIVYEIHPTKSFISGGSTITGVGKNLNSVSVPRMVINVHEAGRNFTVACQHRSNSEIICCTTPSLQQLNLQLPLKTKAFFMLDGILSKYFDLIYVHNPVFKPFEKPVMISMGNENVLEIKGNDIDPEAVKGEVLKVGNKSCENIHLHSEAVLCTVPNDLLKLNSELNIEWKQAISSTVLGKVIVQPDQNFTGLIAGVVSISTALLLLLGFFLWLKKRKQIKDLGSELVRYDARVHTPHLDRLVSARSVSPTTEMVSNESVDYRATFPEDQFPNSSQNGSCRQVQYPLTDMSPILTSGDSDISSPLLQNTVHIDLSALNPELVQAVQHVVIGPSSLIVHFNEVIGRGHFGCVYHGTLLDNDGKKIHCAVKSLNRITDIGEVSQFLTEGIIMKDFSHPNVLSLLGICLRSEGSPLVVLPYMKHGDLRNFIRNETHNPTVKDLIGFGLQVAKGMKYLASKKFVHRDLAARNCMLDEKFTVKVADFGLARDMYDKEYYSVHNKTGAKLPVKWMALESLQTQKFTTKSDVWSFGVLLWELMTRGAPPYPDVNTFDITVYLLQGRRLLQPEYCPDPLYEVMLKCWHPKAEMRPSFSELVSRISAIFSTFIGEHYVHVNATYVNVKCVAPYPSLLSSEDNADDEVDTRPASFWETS

[5] = target: ALK tyrosine kinase receptor (Homo sapiens, UniProt Q9UM73, L1196M); experiment: Inhibition of recombinant human N-terminal GST-tagged ALK (1058 to 1620 residues) cytoplasmic domain L1196M mutant expressed in baculovirus expression system using srctide as substrate incubated for 1 hr by mobility shift assay
ALK tyrosine kinase receptor (Homo sapiens, UniProt Q9UM73, L1196M), sequence (Q9UM73 19-1620 L1196M limits assumed): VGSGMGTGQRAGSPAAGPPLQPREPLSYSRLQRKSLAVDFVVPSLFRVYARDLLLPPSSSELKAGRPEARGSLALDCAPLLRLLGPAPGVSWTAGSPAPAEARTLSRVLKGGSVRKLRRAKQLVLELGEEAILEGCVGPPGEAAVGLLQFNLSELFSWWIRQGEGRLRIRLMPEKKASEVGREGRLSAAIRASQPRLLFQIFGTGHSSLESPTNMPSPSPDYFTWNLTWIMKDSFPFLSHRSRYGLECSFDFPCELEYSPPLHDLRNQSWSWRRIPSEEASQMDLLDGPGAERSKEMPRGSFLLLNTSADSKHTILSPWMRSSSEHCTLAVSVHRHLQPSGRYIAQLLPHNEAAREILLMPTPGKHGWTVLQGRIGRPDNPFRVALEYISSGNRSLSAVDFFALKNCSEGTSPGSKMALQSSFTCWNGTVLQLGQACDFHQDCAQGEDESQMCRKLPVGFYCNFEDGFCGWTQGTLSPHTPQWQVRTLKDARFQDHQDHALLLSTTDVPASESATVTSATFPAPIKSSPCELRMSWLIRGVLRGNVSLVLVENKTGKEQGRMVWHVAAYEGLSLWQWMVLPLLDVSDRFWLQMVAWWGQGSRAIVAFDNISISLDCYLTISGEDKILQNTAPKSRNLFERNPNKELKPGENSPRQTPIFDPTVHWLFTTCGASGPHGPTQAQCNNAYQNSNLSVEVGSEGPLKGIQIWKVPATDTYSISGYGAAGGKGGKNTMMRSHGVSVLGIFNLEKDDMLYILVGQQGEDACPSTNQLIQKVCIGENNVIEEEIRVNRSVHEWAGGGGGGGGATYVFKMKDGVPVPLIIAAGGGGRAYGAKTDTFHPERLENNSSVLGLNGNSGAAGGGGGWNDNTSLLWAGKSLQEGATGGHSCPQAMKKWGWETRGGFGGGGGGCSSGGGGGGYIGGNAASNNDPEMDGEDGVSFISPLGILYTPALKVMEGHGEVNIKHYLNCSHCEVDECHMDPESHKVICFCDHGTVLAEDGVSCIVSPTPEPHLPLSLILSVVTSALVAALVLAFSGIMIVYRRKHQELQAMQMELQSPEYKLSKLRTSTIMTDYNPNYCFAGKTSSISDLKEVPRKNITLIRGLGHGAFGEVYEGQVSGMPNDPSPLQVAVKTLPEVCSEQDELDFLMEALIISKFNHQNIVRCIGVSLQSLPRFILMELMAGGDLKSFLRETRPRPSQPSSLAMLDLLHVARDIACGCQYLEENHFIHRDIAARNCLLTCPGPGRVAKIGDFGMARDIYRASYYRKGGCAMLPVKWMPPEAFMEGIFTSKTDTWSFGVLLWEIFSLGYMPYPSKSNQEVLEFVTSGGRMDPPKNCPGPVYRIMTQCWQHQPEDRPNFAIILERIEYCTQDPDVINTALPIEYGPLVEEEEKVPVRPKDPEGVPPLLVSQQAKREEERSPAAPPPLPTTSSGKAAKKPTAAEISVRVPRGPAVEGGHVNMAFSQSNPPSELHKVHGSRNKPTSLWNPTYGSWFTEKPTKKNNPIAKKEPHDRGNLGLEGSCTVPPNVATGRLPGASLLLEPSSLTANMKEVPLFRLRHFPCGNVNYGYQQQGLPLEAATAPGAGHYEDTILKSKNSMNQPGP

[6] = target: ALK tyrosine kinase receptor (Homo sapiens, UniProt Q9UM73); experiment: Inhibition of recombinant human N-terminal GST-tagged ALK (1058 to 1620 residues) cytoplasmic domain expressed in baculovirus expression system using srctide as substrate incubated for 1 hr by mobility shift assay
[7] = target: ALK tyrosine kinase receptor (Homo sapiens, UniProt Q9UM73, G1202R); experiment: Inhibition of recombinant human N-terminal GST-tagged ALK (1058 to 1620 residues) cytoplasmic domain G1202R mutant using srctide as substrate incubated for 1 hr by mobility shift assay
ALK tyrosine kinase receptor (Homo sapiens, UniProt Q9UM73, G1202R), sequence (Q9UM73 19-1620 G1202R limits assumed): as the sequence (Q9UM73 19-1620 L1196M limits assumed) above, with M1178L, G1184R counted along it

[8] = target: Proto-oncogene tyrosine-protein kinase ROS (Homo sapiens, UniProt P08922); experiment: Inhibition of recombinant human N-terminal GST-tagged ROS (1883 to 2347 residues) cytoplasmic domain expressed in baculovirus expression system using IRS1 as substrate incubated for 1 hr by mobility shift assay

Row | IC50 (KARPAS-299) [nM] | IC50 (NCI-H2228) [nM] | IC50 (A549 [1]) [nM] | IC50 (HT-29) [nM] | IC50 (HCC78) [nM] | IC50 (A549 [2]) [nM] | SMILES | IC50 [3] [nM] | IC50 [4] [nM] | IC50 [5] [nM] | IC50 [6] [nM] | IC50 [7] [nM] | IC50 [8] [nM]
1 | 340 | 230 | > 10000 | 2250 | 310 | 1490 | COc1cc(NC(=O)NN2CCOCC2)ccc1Nc1ncc(Cl)c(Nc2ccccc2NC(C)=O)n1 | – | – | – | – | – | –
2 | 450 | 1210 | 1720 | > 10000 | 870 | 940 | CCOC(=O)C1CCN(C(=O)Nc2ccc(Nc3ncc(Cl)c(Nc4ccccc4NC(C)=O)n3)c(OC)c2)CC1 | – | – | – | – | – | –
3 | 4300 | 2940 | > 10000 | > 10000 | 870 | 1810 | COC(=O)C1=C(Nc2ccc(Nc3ncc(Cl)c(Nc4ccccc4NC(C)=O)n3)c(OC)c2)CCC1 | – | – | – | – | – | –
4 | 37 | 45 | 1430 | 1030 | 39 | 510 | Cc1cc(Nc2ncc(Cl)c(Nc3ccccc3S(=O)(=O)C(C)C)n2)c(OC(C)C)cc1C1CCNCC1 [CERITINIB] | – | 271 | – | – | – | –
5 | 870 | 570 | > 10000 | 4730 | 390 | 2170 | COc1cc(NC2CCCCC2)ccc1Nc1ncc(Cl)c(Nc2ccccc2NC(C)=O)n1 | – | – | – | – | – | –
6 | 5040 | 2530 | > 10000 | > 10000 | 920 | 3130 | CCOC(=O)C1=C(Nc2ccc(Nc3ncc(Cl)c(Nc4ccccc4NC(C)=O)n3)c(OC)c2)CCC1 | – | – | – | – | – | –
7 | 830 | 530 | 4120 | > 10000 | 410 | 2410 | COc1cc(NC(=O)N[C@H]2CC[C@H](C)CC2)ccc1Nc1ncc(Cl)c(Nc2ccccc2NC(C)=O)n1 | – | – | – | – | – | –
8 | 840 | 470 | > 10000 | 6570 | 610 | 740 | COc1cc(NC(=O)NC2CCCC2)ccc1Nc1ncc(Cl)c(Nc2ccccc2NC(C)=O)n1 | – | – | – | – | – | –
9 | 340 | 550 | 2300 | > 10000 | 95 | 1230 | COc1cc(NC(=O)N[C@H]2CC[C@H](O)CC2)ccc1Nc1ncc(Cl)c(Nc2ccccc2NC(C)=O)n1 | – | – | – | – | – | –
10 | 49 | 170 | 4590 | > 10000 | 390 | 440 | COc1cc(NC(=O)N2CCN(C)CC2)ccc1Nc1ncc(Cl)c(Nc2ccccc2NC(C)=O)n1 | – | – | – | – | – | –
11 | 510 | 1730 | 5310 | > 10000 | 610 | 1370 | COc1cc(NC(=O)C2CCN(C(=O)OC(C)(C)C)CC2)ccc1Nc1ncc(Cl)c(Nc2ccccc2NC(C)=O)n1 | – | – | – | – | – | –
12 | 590 | 600 | 2570 | > 10000 | 670 | 1550 | CCOC(=O)[C@@H]1CCCN(C(=O)Nc2ccc(Nc3ncc(Cl)c(Nc4ccccc4NC(C)=O)n3)c(OC)c2)C1 | – | – | – | – | – | –
13 | 210 | 570 | > 10000 | > 10000 | 170 | 2360 | COc1cc(NC(=O)N2CCSCC2)ccc1Nc1ncc(Cl)c(Nc2ccccc2NC(C)=O)n1 | – | – | – | – | – | –
14 | 490 | 780 | 3100 | > 10000 | 270 | 1100 | COc1cc(NC(=O)NCCCN2CCOCC2)ccc1Nc1ncc(Cl)c(Nc2ccccc2NC(C)=O)n1 | – | – | – | – | – | –
15 | 210 | 630 | > 10000 | > 10000 | 390 | 610 | COc1cc(N2C(=O)CCC2=O)ccc1Nc1ncc(Cl)c(Nc2ccccc2NC(C)=O)n1 | – | – | – | – | – | –
16 | 1030 | 1640 | 5190 | > 10000 | 230 | 1110 | COc1cc(NC2=CC(=O)CCC2)ccc1Nc1ncc(Cl)c(Nc2ccccc2NC(C)=O)n1 | – | – | – | – | – | –
17 | 310 | 530 | > 10000 | > 10000 | 660 | 1070 | COc1cc(N2CCCCC2=O)ccc1Nc1ncc(Cl)c(Nc2ccccc2NC(C)=O)n1 | – | – | – | – | – | –
18 | 1050 | 970 | > 10000 | > 10000 | 670 | 1020 | COc1cc(NC2CCCC2)ccc1Nc1ncc(Cl)c(Nc2ccccc2NC(C)=O)n1 | – | – | – | – | – | –
19 | 1020 | 840 | > 10000 | 5510 | 170 | 1830 | COc1cc(NC(=O)NC2CCN(C(=O)OC(C)(C)C)CC2)ccc1Nc1ncc(Cl)c(Nc2ccccc2NC(C)=O)n1 | – | – | – | – | – | –
20 | 390 | 340 | 2450 | 6770 | 560 | 1160 | COc1cc(NC(=O)N2CCC2)ccc1Nc1ncc(Cl)c(Nc2ccccc2NC(C)=O)n1 | – | – | – | – | – | –
21 | 240 | 640 | > 10000 | > 10000 | 210 | 970 | COc1cc(NC(=O)N2CCCCC2)ccc1Nc1ncc(Cl)c(Nc2ccccc2NC(C)=O)n1 | – | – | – | – | – | –
22 | 290 | 720 | 2970 | > 10000 | 110 | 1020 | COc1cc(NC(=O)NCCCN2CCCC2)ccc1Nc1ncc(Cl)c(Nc2ccccc2NC(C)=O)n1 | – | – | – | – | – | –
23 | 720 | 460 | > 10000 | > 10000 | 510 | 1540 | COc1cc(NC(=O)NC2CCCCC2)ccc1Nc1ncc(Cl)c(Nc2ccccc2NC(C)=O)n1 | – | – | – | – | – | –
24 | 1080 | 1850 | > 10000 | 3610 | 390 | 970 | COc1cc(NC(=O)N2CCC(C(=O)O)CC2)ccc1Nc1ncc(Cl)c(Nc2ccccc2NC(C)=O)n1 | – | – | – | – | – | –
25 | 1120 | 930 | 2310 | 3110 | 230 | 1170 | COc1cc(NC(=O)N2CCN(C(=O)OC(C)(C)C)CC2)ccc1Nc1ncc(Cl)c(Nc2ccccc2NC(C)=O)n1 | – | – | – | – | – | –
26 | 660 | 740 | 2150 | 5570 | 230 | 650 | COc1cc(N2CCC2=O)ccc1Nc1ncc(Cl)c(Nc2ccccc2NC(C)=O)n1 | – | – | – | – | – | –
27 | 170 | 610 | > 10000 | 3250 | 530 | 1270 | COc1cc(NC(=O)N2CCC(C)CC2)ccc1Nc1ncc(Cl)c(Nc2ccccc2NC(C)=O)n1 | – | – | – | – | – | –
28 | 270 | 730 | > 10000 | 4150 | 490 | 1070 | COc1cc(NC(=O)N2CC(O)C2)ccc1Nc1ncc(Cl)c(Nc2ccccc2NC(C)=O)n1 | – | – | – | – | – | –
29 | 890 | 810 | > 10000 | > 10000 | 870 | 710 | COc1cc(NC(=O)NC2CC2)ccc1Nc1ncc(Cl)c(Nc2ccccc2NC(C)=O)n1 | – | – | – | – | – | –

Row | SMILES | IC50 (KARPAS-299) [nM] | IC50 (NCI-H2228) [nM] | IC50 (A549 [1]) [nM] | IC50 (HT-29) [nM] | IC50 (HCC78) [nM] | IC50 (A549 [2]) [nM] | IC50 [3] [nM] | IC50 [4] [nM] | IC50 [5] [nM] | IC50 [6] [nM] | IC50 [7] [nM] | IC50 [8] [nM]
30 | COc1cc(NC(=O)NC2CCC(=O)CC2)ccc1Nc1ncc(Cl)c(Nc2ccccc2NC(C)=O)n1 | 77 | 550 | 1720 | > 10000 | 67 | 190 | > 1000 | 325 | 3.9 | 2.5 | 9.3 | 3.7
31 | COc1cc(N2CCCNC2=O)ccc1Nc1ncc(Cl)c(Nc2ccccc2NC(C)=O)n1 | 100 | 220 | > 10000 | 6070 | 89 | 170 | > 1000 | > 1000 | 5.1 | 4.7 | 10.2 | 5.3
32 | COc1cc(NC(=O)N2CCN(CCO)CC2)ccc1Nc1ncc(Cl)c(Nc2ccccc2NC(C)=O)n1 | 93 | 260 | > 10000 | 4030 | 130 | 270 | > 1000 | > 1000 | 2.7 | 6.3 | 6.3 | 1.7
33 | COc1cc(NC(=O)C2CC2)ccc1Nc1ncc(Cl)c(Nc2ccccc2NC(C)=O)n1 | 1060 | 490 | > 10000 | 2960 | 230 | 930 | 617 | > 1000 | 6.6 | 4.1 | 11.5 | 3.2

From ChEMBL document CHEMBL4396963, “An exploration of solvent-front region high affinity moiety leading to novel potent ALK & ROS1 dual inhibitors with mutant-combating effects” (Bioorg Med Chem, 2019)
